Data: PubChem BioAssay (NCI)
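Results reflect a 48-hour exposure of cells in 96-well plates to compound at five concentrations. GI50 = concentration required for 50% inhibition of growth. TGI: concentration producing complete growth inhibition.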

Columns and labels:
Assay in all cases: NCI-60 cell line screen, 48 h
786-0 renal = test system: 786-0 renal
A498 renal = test system: A498 renal
A549 NSCLC = test system: A549 NSCLC
ACHN renal = test system: ACHN renal
BT-549 breast = test system: BT-549 breast
CAKI-1 renal = test system: CAKI-1 renal
CCRF-CEM leukemia = test system: CCRF-CEM leukemia
COLO 205 colon = test system: COLO 205 colon
EKVX NSCLC = test system: EKVX NSCLC
HCT-116 colon = test system: HCT-116 colon
HCT-15 colon = test system: HCT-15 colon
HL-60(TB) leukemia = test system: HL-60(TB) leukemia
HOP-62 NSCLC = test system: HOP-62 NSCLC
HOP-92 NSCLC = test system: HOP-92 NSCLC
HS 578T breast = test system: HS 578T breast
HT29 colon = test system: HT29 colon
IGROV1 ovarian = test system: IGROV1 ovarian
K-562 leukemia = test system: K-562 leukemia
KM12 colon = test system: KM12 colon
LOX IMVI melanoma = test system: LOX IMVI melanoma
M14 melanoma = test system: M14 melanoma
MALME-3M melanoma = test system: MALME-3M melanoma
MCF7 breast = test system: MCF7 breast
MDA-MB-231 breast = test system: MDA-MB-231 breast
MDA-MB-435 = test system: MDA-MB-435
MOLT-4 leukemia = test system: MOLT-4 leukemia
NCI-H226 lung = test system: NCI-H226 lung
NCI-H23 lung = test system: NCI-H23 lung
NCI-H460 lung = test system: NCI-H460 lung
NCI-H522 lung = test system: NCI-H522 lung
NCI/ADR-RES ovarian = test system: NCI/ADR-RES ovarian
OVCAR-3 ovarian = test system: OVCAR-3 ovarian
OVCAR-4 ovarian = test system: OVCAR-4 ovarian
OVCAR-5 ovarian = test system: OVCAR-5 ovarian
OVCAR-8 ovarian = test system: OVCAR-8 ovarian
PC-3 prostate = test system: PC-3 prostate
RPMI-8226 leukemia = test system: RPMI-8226 leukemia
SF-268 CNS = test system: SF-268 CNS
SF-295 CNS = test system: SF-295 CNS
SF-539 CNS = test system: SF-539 CNS
SK-MEL-2 melanoma = test system: SK-MEL-2 melanoma
SK-MEL-28 melanoma = test system: SK-MEL-28 melanoma
SK-MEL-5 melanoma = test system: SK-MEL-5 melanoma
SK-OV-3 ovarian = test system: SK-OV-3 ovarian
SN12C renal = test system: SN12C renal
SNB-19 CNS = test system: SNB-19 CNS
SNB-75 CNS = test system: SNB-75 CNS
SR leukemia = test system: SR leukemia
SW-620 colon = test system: SW-620 colon
T-47D breast = test system: T-47D breast
TK-10 renal = test system: TK-10 renal
U251 CNS = test system: U251 CNS
UACC-257 melanoma = test system: UACC-257 melanoma
UACC-62 melanoma = test system: UACC-62 melanoma
UO-31 renal = test system: UO-31 renal

Compound: COc1cc(CCNC(=O)OC(C)(C)C)c2c(c1OC)SSSSS2
- GI50 (786-0 renal): 2080 nM
- TGI (786-0 renal): 5.56 µM
- GI50 (A498 renal): 1600 nM
- TGI (A498 renal): 3.09 µM
- GI50 (A549 NSCLC): 3.36 µM
- TGI (A549 NSCLC): 10.2 µM
- GI50 (ACHN renal): 2560 nM
- TGI (ACHN renal): 4.93 µM
- GI50 (BT-549 breast): 2540 nM
- TGI (BT-549 breast): 5.06 µM
- GI50 (CAKI-1 renal): 2170 nM
- TGI (CAKI-1 renal): 4.28 µM
- GI50 (CCRF-CEM leukemia): 5.34 µM
- TGI (CCRF-CEM leukemia): 65.2 µM
- GI50 (COLO 205 colon): 2190 nM
- TGI (COLO 205 colon): 4.35 µM
- GI50 (EKVX NSCLC): 2690 nM
- TGI (EKVX NSCLC): 5.97 µM
- GI50 (HCT-116 colon): 5.51 µM
- TGI (HCT-116 colon): > 100 µM
- GI50 (HCT-15 colon): 2450 nM
- TGI (HCT-15 colon): 5.78 µM
- GI50 (HL-60(TB) leukemia): 2920 nM
- TGI (HL-60(TB) leukemia): 13.4 µM
- GI50 (HOP-62 NSCLC): 3.71 µM
- TGI (HOP-62 NSCLC): 15.3 µM
- GI50 (HOP-92 NSCLC): 2310 nM
- TGI (HOP-92 NSCLC): 4.79 µM
- GI50 (HS 578T breast): 3.79 µM
- TGI (HS 578T breast): 32.6 µM
- GI50 (HT29 colon): 1860 nM
- TGI (HT29 colon): 4.02 µM
- GI50 (IGROV1 ovarian): 2200 nM
- TGI (IGROV1 ovarian): 4.63 µM
- GI50 (K-562 leukemia): 2450 nM
- TGI (K-562 leukemia): 21.3 µM
- GI50 (KM12 colon): 3.67 µM
- TGI (KM12 colon): 12.2 µM
- GI50 (LOX IMVI melanoma): 2790 nM
- TGI (LOX IMVI melanoma): 6.75 µM
- GI50 (M14 melanoma): 4.13 µM
- TGI (M14 melanoma): 50.7 µM
- GI50 (MALME-3M melanoma): 2480 nM
- TGI (MALME-3M melanoma): 4.94 µM
- GI50 (MCF7 breast): 1770 nM
- TGI (MCF7 breast): 5.06 µM
- GI50 (MDA-MB-231 breast): 2580 nM
- TGI (MDA-MB-231 breast): 5.82 µM
- GI50 (MDA-MB-435): 2280 nM
- TGI (MDA-MB-435): 4.78 µM
- GI50 (MOLT-4 leukemia): 5.46 µM
- TGI (MOLT-4 leukemia): > 100 µM
- GI50 (NCI-H226 lung): 4.3 µM
- TGI (NCI-H226 lung): 24.4 µM
- GI50 (NCI-H23 lung): 3.56 µM
- TGI (NCI-H23 lung): 20.3 µM
- GI50 (NCI-H460 lung): 2040 nM
- TGI (NCI-H460 lung): 4.81 µM
- GI50 (NCI-H522 lung): 2100 nM
- TGI (NCI-H522 lung): 4.18 µM
- GI50 (NCI/ADR-RES ovarian): 3.64 µM
- TGI (NCI/ADR-RES ovarian): 70.2 µM
- GI50 (OVCAR-3 ovarian): 2650 nM
- TGI (OVCAR-3 ovarian): 5.51 µM
- GI50 (OVCAR-4 ovarian): 2050 nM
- TGI (OVCAR-4 ovarian): 4.82 µM
- GI50 (OVCAR-5 ovarian): 3.14 µM
- TGI (OVCAR-5 ovarian): 9.23 µM
- GI50 (OVCAR-8 ovarian): 3.53 µM
- TGI (OVCAR-8 ovarian): 11.7 µM
- GI50 (PC-3 prostate): 3.72 µM
- TGI (PC-3 prostate): 13.6 µM
- GI50 (RPMI-8226 leukemia): 2110 nM
- TGI (RPMI-8226 leukemia): 10.7 µM
- GI50 (SF-268 CNS): 1870 nM
- TGI (SF-268 CNS): 4.04 µM
- GI50 (SF-295 CNS): 2760 nM
- TGI (SF-295 CNS): 6.43 µM
- GI50 (SF-539 CNS): 3.42 µM
- TGI (SF-539 CNS): 10.4 µM
- GI50 (SK-MEL-2 melanoma): 2450 nM
- TGI (SK-MEL-2 melanoma): 5.68 µM
- GI50 (SK-MEL-28 melanoma): 1900 nM
- TGI (SK-MEL-28 melanoma): 3.68 µM
- GI50 (SK-MEL-5 melanoma): 1840 nM
- TGI (SK-MEL-5 melanoma): 3.38 µM
- GI50 (SK-OV-3 ovarian): 2800 nM
- TGI (SK-OV-3 ovarian): 6.05 µM
- GI50 (SN12C renal): 3.74 µM
- TGI (SN12C renal): 15.8 µM
- GI50 (SNB-19 CNS): 2700 nM
- TGI (SNB-19 CNS): 5.63 µM
- GI50 (SNB-75 CNS): 2270 nM
- TGI (SNB-75 CNS): 4.56 µM
- GI50 (SR leukemia): 4.48 µM
- TGI (SR leukemia): 32.8 µM
- GI50 (SW-620 colon): 2800 nM
- TGI (SW-620 colon): 7.69 µM
- GI50 (T-47D breast): 2770 nM
- TGI (T-47D breast): 5.92 µM
- GI50 (TK-10 renal): 2630 nM
- TGI (TK-10 renal): 5.5 µM
- GI50 (U251 CNS): 2470 nM
- TGI (U251 CNS): 5.28 µM
- GI50 (UACC-257 melanoma): 2930 nM
- TGI (UACC-257 melanoma): 5.48 µM
- GI50 (UACC-62 melanoma): 3.93 µM
- TGI (UACC-62 melanoma): 15.5 µM
- GI50 (UO-31 renal): 2180 nM
- TGI (UO-31 renal): 5.47 µM
